Laboratory results from patent US20050260637A1, “Drug screening” (priority 2004, published 2005).
Where a chain is given by its changes, count along the chain named. Names may count otherwise. Like-named read-outs stand apart in the source and are kept apart here.

T1: p53R2/M1 (p53R2 and hRRM1 reconstituted RNR) (Homo sapiens, UniProt Q7LG56)
T1 construct: 6xHis; made in house
T1 sequence (Q7LG56 1-351): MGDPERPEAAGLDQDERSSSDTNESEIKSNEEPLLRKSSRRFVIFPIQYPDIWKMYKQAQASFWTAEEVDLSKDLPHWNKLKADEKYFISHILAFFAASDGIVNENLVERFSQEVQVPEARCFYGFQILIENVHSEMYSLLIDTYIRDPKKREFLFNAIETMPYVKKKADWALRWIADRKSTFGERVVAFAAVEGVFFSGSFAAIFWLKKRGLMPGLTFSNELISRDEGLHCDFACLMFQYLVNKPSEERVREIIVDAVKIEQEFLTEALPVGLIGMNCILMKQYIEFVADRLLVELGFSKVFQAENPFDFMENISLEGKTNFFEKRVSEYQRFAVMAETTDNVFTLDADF

T2: M2/M1 (hRRM2 and hRRM1 reconstituted RNR) (Homo sapiens, UniProt P31350)
T2 construct: 6xHis; made in house
T2 sequence (P31350 1-389): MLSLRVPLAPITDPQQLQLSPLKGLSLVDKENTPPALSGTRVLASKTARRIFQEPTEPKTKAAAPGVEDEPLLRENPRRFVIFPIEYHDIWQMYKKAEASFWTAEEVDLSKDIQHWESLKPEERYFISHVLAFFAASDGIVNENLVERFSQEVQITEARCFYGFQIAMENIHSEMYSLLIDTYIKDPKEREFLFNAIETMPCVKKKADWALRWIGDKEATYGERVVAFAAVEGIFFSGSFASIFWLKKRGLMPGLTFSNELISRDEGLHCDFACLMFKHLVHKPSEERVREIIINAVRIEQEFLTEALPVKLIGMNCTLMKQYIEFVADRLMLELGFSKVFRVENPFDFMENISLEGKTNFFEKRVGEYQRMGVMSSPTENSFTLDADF

T3: p53R2/hRRM1 (Homo sapiens, UniProt Q7LG56, Y124W)
T3 construct: 6xHis; made in house; host or cells: E. coli BL21(DE3), pET-p53R2 template
T3 sequence (Q7LG56 1-351 Y124W): T1 sequence (Q7LG56 1-351) with Y124W

B1: Y124W-p53R2: p53R2 mutant with Tyr124 replaced by tryptophan (SEQ ID NO: 19) (protein, listed as Homo sapiens)
chain: T1 sequence (Q7LG56 1-351) with Y124W

Legend:
[1] = system: T4, RNR containing hRRM2 or p53R2; test: In vitro RNR activity assay, both reconstituted RNRs compared (average, selective index, comparison in words); type: biochemical, human; details: for IC50: average of M2/M1 and p53R2/M1, read-out: In vitro RR activity (IC50) Average
T4 construct: In vitro RR activity (IC50) Average; other: compound in 1% DMSO; average of M2/M1 and p53R2/M1; other: compound in 2.5% DMSO; other: compound in dH2O + FeCl3; other: compound in dH2O; Inhi; fused on or other part: 6xHis tag on each subunit
Description: (§1) To reconstitute an active RNR, three 6′His-tag human RNR subunit proteins (hRRM2, p53R2, and hRRM1) were prokaryotically expressed, purified using Ni-resin affinity chromatography, and stored in 50 mM Tris-HCl, pH 7.4, 100 mM KCl at −70° C. according to standard techniques. The purified proteins were subjected to SDS-PAGE analysis. […] To reconstitute RNR, 1 μM of hRRM2 or p53R2 protein was incubated with 0.5 μM hRRM1 protein in multiple-well plates. The reconstitute RNR was tested for RNR activity according to standard techniques.
(§2) Each compound of various concentration was mixed with the purified hRRM2 and hRRM1, or p53R2 and hRRM1 at room temperature for 30 minutes. An enzymatic reaction buffer was then added to the mixture to reach a final volume of 100 μl and incubated at 37° C. for 30 minutes. The reaction buffer contained […] [^3H] CDP, 50 mM HEPES pH 7.2,6 mM DTT, 4 mM MgOAC, 2 mM ATP, 0.05 mM CDP, 100 mM KCl, and 0.24 mM NADPH. […] FeCl3 could be added to the buffer as an iron source. After dephosphorylation, the supernatant of each reaction mixture was analyzed by an HPLC-connected radioactivity detector. IC50 values were calculated by the non-linear regression equations: f (x)=(a-d)/[1+(x/c)^b]+d.
The above-described four SB-HSCs were tested for their inhibitory potency and subunit-selectivity by the in vitro RNR assay in the same manner descried above. The dose-dependent inhibition curves were found.

[2] = target: T1, p53R2/M1 (p53R2 and hRRM1 reconstituted RNR); test: In vitro RNR activity assay with reconstituted p53R2/hRRM1 ([3H]CDP reduction); type: biochemical; details: read-out: In vitro RR activity (IC50 ± sd) p53R2/M1
Description: as §1, §2

[3] = target: T2, M2/M1 (hRRM2 and hRRM1 reconstituted RNR); test: In vitro RNR activity assay with reconstituted hRRM2/hRRM1 ([3H]CDP reduction); type: biochemical; details: read-out: In vitro RR activity (IC50 ± sd) M2/M1
Description: as §1, §2

[4] = system: tyrosyl radicals of both RNR small subunits (hRRM2, p53R2); test: EPR spectroscopy of tyrosyl radical after incubation with compound; type: biochemical, human; details: protein incubated with compound at room temperature for 30 minutes; EPR at 20 K
Description: Electron paramagnetic resonance (EPR) spectroscopy was then conducted. Prior to EPR, protein samples were incubated with each of the above-described compounds at room temperature for 30 minutes. EPR parameters were set as following: T=20 K, microwave frequency=9.376 GHz, microwave power=0.5 mW, modulation amplitude 4 gauss, modulation frequency 100 KHz. […] The EPR analysis was conduced in the presence of irons and the reductants.

[5] = target: T3, p53R2/hRRM1; test: RNR activity of mutated p53R2 proteins with hRRM1 (modified [3H]CDP reduction assay); type: biochemical
Description: The activities of hRRM2/hRRM1 and p53R2/hRRM1 were measured using a modified [^3H] CDP reduction assay. The reaction mixture contained 0.125 μM [^3H] CDP (0.3 μCi), 50 mM of HEPES (pH 7.2), 6 mM DTT, 4 mM MgOAC, 2 mM ATP, 0.05 mM CDP, 100 mM KCl, 0.24 mM NADPH. The enzyme activity was measured in the presence of 0.5 μM of M1 protein and 1 μM of hRRM2 or p53R2 proteins with a total sample volume of 100 μl. After incubation at 37° C. for 15-30 minutes and dephosphorylation with phosphodiesterase, the supernatant was analyzed by HPLC using a C-18 reversed phase column to separate [^3H] cytidine and [^3H] deoxycytidine. Radioactivity of the HPLC aliquots was measured with a β-RAM-2B Flow-through radioisotope beta/gamma detector (IN/US Systems, Tampa, Fla.). The enzyme activity was measured as relative activity of dCDP/(CDP+dCDP)% (i. e., the percentage of dCDP of all ribonucleoside diphosphates and deoxyribonucleoside diphosphates). Results were normalized against those of wild type proteins, which were considered having 100% conversion of CDP to dCDP. Each value is the average of two to three determinations with deviations <0.3%.

Molecule	Inhibition of reconstituted RNR activity (in words) [1]	IC50 ([1]; compound in 1% DMSO) [µM]	IC50 ([1]; compound in 2.5% DMSO) [µM]	IC50 ([1]; compound in dH2O + FeCl3) [µM]	IC50 ([1]; compound in dH2O) [µM]	IC50 ([2]; compound in 1% DMSO) [µM]	IC50 ([2]; compound in 2.5% DMSO) [µM]	IC50 ([2]; compound in dH2O + FeCl3) [µM]	IC50 ([2]; compound in dH2O) [µM]	IC50 ([3]; compound in 1% DMSO) [µM]	IC50 ([3]; compound in 2.5% DMSO) [µM]	IC50 ([3]; compound in dH2O + FeCl3) [µM]	IC50 ([3]; compound in dH2O) [µM]	Quenching of tyrosyl radical EPR signal [4]	Enzyme activity retained, fraction of the wild type protein [5]
NC(=O)NO [HU, Hydroxyurea]	significantly inhibited the activity of RNR containing hRRM2 or p53R2	153	150	1270	178	159 ± 6.82	146 ± 6.06	1990 ± 71.2	190 ± 6.43	148 ± 7.34	155 ± 6.59	556 ± 24.1	165 ± 7.95	quenched the tyrosyl radicals of both RNR small subunits	–
B1	–	–	–	–	–	–	–	–	–	–	–	–	–	–	1/3
